# Patent US9834544B2, “Sweet flavor modifier” (SENOMYX, INC., priority 2011, dated 2017)
# Experiments:
# hT1R2/R3 = biological target: T1, hT1R2/R3 (Homo sapiens, UniProt Q7RTX0+Q8TE23); assay: Screening for sweet enhancers: FLIPR calcium assay in hT1R2/R3-mammalian Gal5 cells, leftward shift of sweetener EC50; assay type: cell-based; details: for EC50 Ratio, Sucralose Enhancement / EC50 Ratio, Sucrose Enhancement: compound at 10 μM; for EC50 Ratio, Sucralose Enhancement: sweetener sucralose; for EC50 Ratio, Sucrose Enhancement: sweetener sucrose
# T1 construct: expressed in transfected cells; host or cells: 'hT1R2/R3-mammalian Gal5 cells'
# T1 sequence (Q8TE23 20-839): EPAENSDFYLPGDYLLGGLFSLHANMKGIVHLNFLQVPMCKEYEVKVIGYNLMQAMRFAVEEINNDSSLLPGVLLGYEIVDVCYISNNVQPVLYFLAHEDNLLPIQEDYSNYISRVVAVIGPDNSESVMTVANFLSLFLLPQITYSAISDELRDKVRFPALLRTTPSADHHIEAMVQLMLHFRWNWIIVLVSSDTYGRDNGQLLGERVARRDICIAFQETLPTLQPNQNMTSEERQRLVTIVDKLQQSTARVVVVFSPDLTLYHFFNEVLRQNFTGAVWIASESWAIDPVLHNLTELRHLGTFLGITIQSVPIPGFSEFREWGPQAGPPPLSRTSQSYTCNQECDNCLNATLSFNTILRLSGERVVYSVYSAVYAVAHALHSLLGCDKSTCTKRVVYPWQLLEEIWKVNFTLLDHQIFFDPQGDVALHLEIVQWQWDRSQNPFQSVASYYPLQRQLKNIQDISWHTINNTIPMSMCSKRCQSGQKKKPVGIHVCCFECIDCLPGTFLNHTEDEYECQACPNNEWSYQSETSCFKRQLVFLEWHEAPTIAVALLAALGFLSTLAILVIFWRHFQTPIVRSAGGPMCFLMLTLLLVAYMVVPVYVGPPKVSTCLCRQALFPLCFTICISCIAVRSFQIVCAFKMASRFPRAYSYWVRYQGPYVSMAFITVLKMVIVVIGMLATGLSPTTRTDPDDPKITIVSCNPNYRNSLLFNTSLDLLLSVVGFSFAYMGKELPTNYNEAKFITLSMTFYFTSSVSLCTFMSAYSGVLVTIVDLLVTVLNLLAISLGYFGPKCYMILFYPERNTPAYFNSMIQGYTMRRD
# T1 sequence (Q7RTX0 21-852): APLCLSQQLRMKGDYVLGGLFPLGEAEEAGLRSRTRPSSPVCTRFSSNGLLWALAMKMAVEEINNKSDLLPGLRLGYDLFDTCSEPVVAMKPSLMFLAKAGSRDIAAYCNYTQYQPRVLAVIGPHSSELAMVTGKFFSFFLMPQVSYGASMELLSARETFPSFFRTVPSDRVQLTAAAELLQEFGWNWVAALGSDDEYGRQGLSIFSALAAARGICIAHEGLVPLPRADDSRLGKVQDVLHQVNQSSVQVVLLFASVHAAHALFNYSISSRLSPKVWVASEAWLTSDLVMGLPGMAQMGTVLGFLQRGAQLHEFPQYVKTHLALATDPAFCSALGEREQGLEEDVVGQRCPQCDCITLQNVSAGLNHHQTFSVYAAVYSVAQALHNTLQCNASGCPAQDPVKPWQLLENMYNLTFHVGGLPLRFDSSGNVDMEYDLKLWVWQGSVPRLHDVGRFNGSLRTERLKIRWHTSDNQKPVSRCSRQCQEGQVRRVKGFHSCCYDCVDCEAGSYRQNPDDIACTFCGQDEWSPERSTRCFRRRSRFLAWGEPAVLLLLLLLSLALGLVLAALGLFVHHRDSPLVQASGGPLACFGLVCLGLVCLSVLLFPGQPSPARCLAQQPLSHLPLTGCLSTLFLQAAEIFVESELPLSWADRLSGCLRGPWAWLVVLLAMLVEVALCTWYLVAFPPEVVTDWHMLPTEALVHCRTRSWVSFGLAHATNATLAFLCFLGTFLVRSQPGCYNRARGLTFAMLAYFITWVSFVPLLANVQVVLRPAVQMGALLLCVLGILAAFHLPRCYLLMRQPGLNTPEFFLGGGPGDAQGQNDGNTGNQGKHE
# Description: hT1R2/R3-mammalian Gal5 cells were seeded in 384-well-clear bottom plates (Fisher) at a density of ˜32,000 cells/well and grown overnight. On the day of the experiment, hT1R2/R3-mammalian Gal5 were loaded with the calcium indicator Fluo3AM ([…]) (Invitrogen, Carlsbad, Calif.) in D-PBS (Invitrogen, Carlsbad, Calif.) using a Multidrop. Cells were incubated for 1 hour at room temperature and excess dye was washed out with D-PBS using an EMBLA cell washer (Molecular Devices, Sunnyvale, Calif.), leaving a residual volume of […]. Sweeteners and test compounds were prepared at 4× final concentration and mixed 1:1 in a 384-well Greiner plate (bringing the sweeteners and test compounds concentrations down to 2× final concentration). After 30 minutes of rest time at room temperature, Fluo3AM-loaded cell plates, and the sweetener/compound plate mixture were loaded into a Fluorometric Imaging Plate Reader (FLIPR) (Molecular Devices, Sunnyvale, Calif.). Imaging was performed using a 480 nm excitation and a 535 emission and was initiated with the acquisition of the baseline fluorescence for a period of 7 seconds. Then, the cells were stimulated on line with addition of […] stimuli/well. Subsequent images were acquired every other second for a period of 2 minutes. Raw fluorescence counts were then normalized in each well (using custom made data import software) by calculating delta F/f values (maximum fluorescent count obtained after stimulation−minimal fluorescent count obtained before stimulation/minimal fluorescent count obtained before stimulation). EC50s were determined using a non-linear regression algorithm (GraphPad PRISM, San Diego, Calif.), where the Hill slope, bottom asymptotes and top asymptotes were allow to vary. Enhancement properties of test compounds were quantified by determining the magnitude of the leftward shift in the sweeteners EC50 values (or an EC50 ratio): the value of the EC50 measured in the absence of the enhancer divided by the value of the EC50 measured in the presence of the enhancer).
# The present compounds have been tested and shown sweet taste enhancing activities for sucrose, sucralose, and/or fructose as shown in Table E (EC50 ratio for sucrose at about 10 μM), Table F (EC50 ratio for sucralose at about 10 μM), and Table H (EC50 ratio for fructose at about 50 µM). […] The compounds listed in Tables E, F and H are Examples described above. For example, Compound C6 listed in Tables E and F is Example 18 described above.
# Human Panelists [1] = assay: Sweet flavor enhancement, human panelists, scaling test; assay type: in vivo; details: 0 to 15 scale, n = 30
# Description: Test samples containing experimental compounds were compared to a dose-response curve for perceived sweetness intensity of sweeteners (sucralose, sucrose, fructose and other sweeteners) concentrations to determine equivalent sweetness intensity.
# A group of eight or more panelists tasted solutions including sweeteners at various concentrations, as well as the experimental compound both with and without added sweetener. Panelists then rated sweetness intensity of all samples on a structured horizontal line scale, anchored from 0 to 15, where 0 equals no sweetness and 15 equals equivalent sweetness to a 15% sucrose sample. Scores for sweetness intensity were averaged across panelists. Then using the average scores and/or equation of the line for the sweetener dose-response curve, equivalent sweetness concentrations were determined for the samples containing experimental compounds.
# Subjects had been previously familiarized with the key attribute taste and were trained to use the 0 to 15 point line scale. Subjects refrained from eating or drinking (except water) for at least 1 hour prior to the test. Subjects ate a cracker and rinsed with water several times to clean the mouth.
# Sweetener solutions are provided at a wide range of concentrations such as 100 ppm, 200 ppm, 300 ppm, 400 ppm, and 500 ppm for sucralose, or between 0% and 12% for sucrose or fructose, in order to create a dose-response curve. Samples containing experimental compound were prepared both alone and in a 100 ppm sucralose solution or a 6% sucrose or fructose solution. All samples were made up in low sodium buffer pH 7.1. In order to aid dispersion, solutions can be made up in 0.1% ethanol.
# The solutions were dispensed in 20 ml volumes into 1 oz. sample cups and served to the subjects at room temperature. All samples were presented in randomized counterbalanced order to reduce response bias. Further, two sessions of testing may be used to check panel precision.
# Subjects tasted each sample individually and rate sweetness intensity on the line scale prior to tasting the next sample. All samples were expectorated. Subjects may retaste the samples but can only use the volume of sample given. Subjects must rinse with water between samples. Eating an unsalted cracker between samples may be required depending on the samples tasted.
# The scores for each sample were averaged across subjects and standard error was calculated. The dose-response curve was plotted graphically, and this may be used to ensure the panel is rating accurately; i.e., increasing the concentration of sucralose should correspond to increased average scores for sweetness. […]
# Human Panelists [2] = assay: Paired comparison test with Compound D5 in product prototype (drinks); assay type: in vivo
# Description: (§1) Test samples containing experimental compounds are presented in pairs to the panelist and they are asked to determine which of the sample is sweeter. A group of 10-16 or more panelists participated in each test. Subjects refrained from eating or drinking (except water) for at least 1 hour prior to the test. Subjects rinsed with water several times to clean the mouth.
# (§2) In one paired comparison test, the panelist is presented with two different samples and asked to identify the sample which is sweeter. The samples within a paired comparison test are presented in a randomized, counterbalanced order. Panelists have up to a 1 minute delay between taste tests to clear the mouth of any tastes.
# (§3) Binomial probability tables are used to determine the probability of the correct number of responses occurring for each test at alpha=0.05
# Human panelists evaluated various drinks (e.g., tea, coffee, Kool-Aid) in paired comparison taste test procedure.
# Human Panelists [3] = assay: Sweet flavor enhancement, human panelists, paired comparison test; assay type: in vivo
# Description: as §1
# All samples are prepared with ethanol to ensure dispersion of the compound in solution. This includes samples without compound; all solutions are balanced for 0.1% ethanol.
# Samples are also prepared with low sodium buffer (pH 7.1) in place of water. Buffer contains 0.952 g of KCl, 5.444 g of Na2HPO4, and 0.952 g of KH2PO4 in 40 L of DIUF water. Sample volumes are usually 20 ml.
# as §2, §3
compound,measurement,setting,value
"Cc1nc2cccc(OCC(C)(C)C(=O)NCC(C)C)c2c(N)c1C(=O)O [Compound C6, 4-amino-5-(3-(isobutylamino)-2,2-dimethyl-3-oxopropoxy)-2-methylquino-line-3-carboxylic acid]",melting point,,176 to 179 °C
same,"EC50 Ratio, Sucralose Enhancement",hT1R2/R3,3.8
same,"EC50 Ratio, Sucrose Enhancement",hT1R2/R3,11.0
Cc1nc2cccc(OCC(C)(C)NC(=O)CC(C)C)c2c(N)c1C(=O)O [Compound O5],"EC50 Ratio, Sucralose Enhancement",hT1R2/R3,4.3
same,"EC50 Ratio, Sucrose Enhancement",hT1R2/R3,6.0
same,"EC50 Ratio, Fructose Enhancement","hT1R2/R3; compound at 50 μM, sweetener fructose",2.6
OC[C@H]1O[C@@](CO)(O[C@H]2O[C@H](CO)[C@@H](O)[C@H](O)[C@H]2O)[C@@H](O)[C@@H]1O [Sucrose],Average Sweetness,Human Panelists [1]; 6% Sucrose,6.6
same,Average Sweetness,Human Panelists [1]; 8% Sucrose,8.1
same,Average Sweetness,Human Panelists [1]; 10% Sucrose,9.8
same,Average Sweetness,Human Panelists [1]; 12% Sucrose,11.0
same,"Sample selected as sweeter by panelists, Total","Human Panelists [2]; 8% Sucrose Brewed Neutral Black Tea vs 4% Sucrose Brewed Neutral Black Tea + 30.6 μM Compound D5, n = 39",22
same,"Sample selected as sweeter by panelists, Total","Human Panelists [2]; 8% Sucrose Coffee Drink vs 4% Sucrose Coffee Drink + 23.65 μM Compound D5, n = 39",20
same,"Sample selected as sweeter by panelists, Total","Human Panelists [2]; 10% Sucrose Cherry Kool-Aid vs 5% Sucrose Cherry Kool-Aid + 41.7 μM Compound D5, n = 33",18
same,"Sample selected as sweeter by panelists, Total","Human Panelists [2]; 10% Sucrose Lemonade Kool-Aid vs 5% Sucrose Lemonade Kool-Aid + 41.7 μM Compound D5, n = 48",27
same,"Sample selected as sweeter by panelists, Total","Human Panelists [3]; 1% Sucrose vs LSB + 27.8 μM Compound D5, n = 45",43
same,"Sample selected as sweeter by panelists, Total","Human Panelists [3]; 1% Sucrose vs LSB + 27.8 μM Compound Y5, n = 45",44
same,"Sample selected as sweeter by panelists, Total","Human Panelists [3]; 1% Sucrose vs LSB + 111.3 μM Compound D5, n = 29",21
same,"Sample selected as sweeter by panelists, Total","Human Panelists [3]; 10% Sucrose vs 6% Sucrose + 24.9 μM Compound E5, n = 39",13
same,"Sample selected as sweeter by panelists, Total","Human Panelists [3]; 10% Sucrose vs 6% Sucrose + 26.8 μM Compound L6, n = 45",14
same,"Sample selected as sweeter by panelists, Total","Human Panelists [3]; 10% Sucrose vs 6% Sucrose + 26.9 μM Compound A6, n = 45",9
same,"Sample selected as sweeter by panelists, Total","Human Panelists [3]; 10% Sucrose vs 6% Sucrose + 26.9 μM Compound Q5, n = 48",13
same,"Sample selected as sweeter by panelists, Total","Human Panelists [3]; 10% Sucrose vs 6% Sucrose + 26.9 μM Compound R5, n = 42",16
same,"Sample selected as sweeter by panelists, Total","Human Panelists [3]; 10% Sucrose vs 6% Sucrose + 27.8 μM Compound D5, n = 45",13
same,"Sample selected as sweeter by panelists, Total","Human Panelists [3]; 10% Sucrose vs 6% Sucrose + 27.8 μM Compound Y5, n = 11 (11 panelists × 2 reps)",8
same,"Sample selected as sweeter by panelists, Total","Human Panelists [3]; 10% Sucrose vs 6% Sucrose + 27.9 μM Compound K5, n = 45",11
same,"Sample selected as sweeter by panelists, Total","Human Panelists [3]; 10% Sucrose vs 6% Sucrose + 28.9 μM Compound E6, n = 39",18
